Here are results for 9 compounds from US6800630B2, “Pyrimidine derivatives having antitumor effect” (Shionogi & Co., Ltd., priority 2000, dated 2004).

SMILES strings stand for the structures. Converted amounts (≈) assume the structure as drawn.

Common to all, as to type: cell-based
The subject of assay [1] is DT-C cells (pGV-P transfected v-ki-ras-transformed NIH373 cells). The assay is described as follows: Luciferase activity of DT-C control cells (IC50-C), index of non-specific transcription-inhibitory effect or cytotoxicity. The conditions noted are these: tested concentration nearest to 50% inhibition in DT-C cells. The source says:
(§1) Test Example 1 Inhibitory effect against cellular signaling derived from Ras oncogene products
(§2) Based on the reporter plasmid (pGV-P (Toyo Ink, Japan)), in which luciferase gene was ligated to SV40-derived minimal promoter, we constructed a plasmid designated pRRE3-luc by inserting 3 copies of chemically synthesized oligonucleotides (Sequence: CAGGATATGACTCT, derived from mouse NVL-3 (M. A. Reddy et al.(1992)Mol. Endocrinol., 6, 1051)) into upstream of the promoter. v-ki-ras-transformed NIH373 cells (DT cells, provided by Dr. Makoto Noda (Kyoto Univ., School of medicine)) were transfected with this plasmid by liposome-mediated transfection and transfected cell lines stably incorporated and maintained each plasmid were obtained. We named pGV-P and pRRE3-transfected cell line as DT-C and DT-R, respectively and used in the assay described below.
(§3) i) All the cell lines were cultured in Dulbecco's Modified Essential Medium (DMEM: 10% Fetal Calf Serum(FCS: Hyclone, USA)) including […] kanamycin (Meiji Seika, Japan) in humidified incubator under condition of 5% CO2 at 37° C.
(§4) ii) DT-C and DT-R cells were seeded at 2500 cells/well into flat-bottom 96 well multiplate (Sumitomo bakelite) and incubated for 24 hours.
(§5) iii) Test compounds were prepared as 1 mg/ml DMSO solution.
(§6) iv) The solution of test compounds were added to the culture. Tested compounds are used at the concentration from […] to 0.51 ng/ml with 3-fold dilution.
(§7) v) After 24 hours, the culture supernatant was completely aspirated and 20 μl of cell-lysing solution (PGC-50 (Toyo Ink, Japan)) was added before cells were dried up. In order to lyse the cells completely, multiwell plates were left at room temperature for 10 to 30 min. The plates were wrapped up and stored at −20° C. till the day of measurement.
(§8) i) Melt the samples by putting 96 well multiplate at 37° C. and add 90 μl/well 25 mM Tris (pH 7.5).
(§9) ii) Transfer 50 μl of the sample (110 μl) to the 96 well microplate (Microlite 1 (Dynatech)) for measurement.
(§10) iii) Measure the samples by the luminometer, LUMINOUS CT9000D (Dia-Yatron, Japan). We used Pickagene luminescence kit PGL2000 or LT2.0 (Toyo Ink, Japan) as enzyme substrates for luminescence measurement (50 μl/well).
(§11) i) The luciferase activity of DT-C cells and DT-R cells were plotted in the graph where the relative activity and the compound concentration were expressed as Y-axis and X-axis, respectively. We judged by the degree of dissociation between the activities of DT-C cells and DT-R cells as an index.
b) Among the points of concentration tested, the concentration which is the nearest to 50% inhibition concentration at DT-C cells (IC50-C), was shown as an index of non-specific transcription-inhibitory effect or of cytotoxicity. In case of positive compounds, 50% inhibition concentration in DT-C cells which was higher than the active concentration was expressed as IC50-C.

Assay [2] relates to human squamous lung cancer Ma44. Put plainly: In vitro cell growth inhibition test, MTT assay. The conditions noted are these: MTT assay 4 days after compound addition. The source says:
(§12) Test Example 2 In vitro cell growth inhibition test Cells and MTT assay
(§13) Human squamous lung cancer […], human squamous lung cancer Ma44, human lung adenocarcinoma A549, human colon cancer HT29 and human pancreas cancer PANC-1 were used.

The subject of assay [3] is signal derived from Ras oncogene products (DT-R cells, pRRE3-luc transfected v-ki-ras-transformed NIH373 cells). Put plainly: Inhibitory effect against cellular signaling derived from Ras oncogene products: RRE-luciferase reporter, Minimal Active Concentration (MAC) at which DT-C and DT-R activities dissociate. The conditions noted are these: minimal concentration at which luciferase activities of DT-C and DT-R cells dissociated.
From the text: as §1, §2, §3, §4, §5, §6, §7, §8, §9, §10, §11
ii) Concretely, efficacy of the compound was expressed by two values described below.
a) Among the points of concentration tested, the minimal concentration (Minimal Active Concentration: MAC), at which the activities of DT-C cells and DT-R cells dissociated, was shown as an index of efficacy of the compound.
A general note: A reporter such as luciferase makes a cellular process visible.

Assay [4] deals with human pancreas cancer PANC-1. The assay is described as follows: In vitro cell growth inhibition test, MTT assay. The conditions noted are these: MTT assay 4 days after compound addition.
From the text: as §12, §13

Assay [5] concerns human lung adenocarcinoma A549. Put plainly: In vitro cell growth inhibition test, MTT assay. The conditions noted are these: MTT assay 4 days after compound addition.
From the text: as §12, §13
(In general: Formazan colour is commonly taken as a measure of viable cells.)

Assay [6] deals with human colon cancer HT29. Put plainly: In vitro cell growth inhibition test, MTT assay. The conditions noted are these: MTT assay 4 days after compound addition.
From the text: as §12, §13

Assay [7] relates to human squamous lung cancer RERF-RC-AI. The assay is described as follows: In vitro cell growth inhibition test, MTT assay. The conditions noted are these: MTT assay 4 days after compound addition.
From the text: as §12, §13

The test system of assay [8] is H460. The assay is described as follows: In vitro cell growth inhibition test, MTT assay. The conditions noted are these: MTT assay 4 days after compound addition.
From the text: [The source words this procedure for another cell line and reports this cell line under the same test.] as §12, §13

For the compound `CNC(=Nc1nc(C)ncc1CSc1nnc(-c2ccc(N)cc2)o1)SC` [Compound A-10], the “IC50 (IC50-C)” value in assay [1] is above 10 µg/mL. Also, the “IC50 Ma44” value in assay [2] was 0.08 µg/mL (≈ 0.199 µM). Further, in assay [3], the “MAC (Minimal Active Concentration)” value was 1.11 µg/mL.

Take `CCNC(=Nc1nc(C)ncc1CSc1nnc(-c2ccc(N)cc2)o1)SCC` [Compound A-14]: the “IC50 (IC50-C)” value in assay [1] is above 10 µg/mL. In assay [4], the “IC50 PANC-1” value was 0.0098 µg/mL (≈ 0.0228 µM). Further, in assay [5], the “IC50 A549” value worked out at 0.012 µg/mL (≈ 0.0279 µM). The “IC50 HT-29” value in assay [6] came out at 0.011 µg/mL (≈ 0.0256 µM). In addition, the “IC50 RERF-LC-AI” value in assay [7] was 0.012 µg/mL (≈ 0.0279 µM). Also, the “IC50 Ma44” value in assay [2] amounted to 0.032 µg/mL (≈ 0.0745 µM). Besides, the “MAC (Minimal Active Concentration)” value in assay [3] was 0.0412 µg/mL.

`CCNC(=Nc1nc(C)ncc1C(C)Sc1nnc(-c2ccc([N+](=O)[O-])cc2)o1)NCC` (racemic) [Compound A-23]: the “IC50 (IC50-C)” value in assay [1] was above 10 µg/mL. Further, the “MAC (Minimal Active Concentration)” value in assay [3] was 3.33 µg/mL.

For `CCCSC(=Nc1nc(C)ncc1CSc1nnc(-c2ccc(N)cc2)o1)NCC` [Compound A-16], the “IC50 (IC50-C)” value in assay [1] was above 10 µg/mL. Also, in assay [4], the “IC50 PANC-1” value was 0.0065 µg/mL (≈ 0.0147 µM). Also, the “IC50 A549” value in assay [5] turned out to be 0.0146 µg/mL (≈ 0.0329 µM). For the same compound, in assay [8], the “IC50 H460” value came to 0.0107 µg/mL (≈ 0.0241 µM). Further, the “IC50 HT-29” value in assay [6] is 0.0081 µg/mL (≈ 0.0183 µM). Also, the “IC50 RERF-LC-AI” value in assay [7] was 0.0073 µg/mL (≈ 0.0165 µM). In assay [2], the “IC50 Ma44” value stood at 0.0136 µg/mL (≈ 0.0307 µM). Further, in assay [3], the “MAC (Minimal Active Concentration)” value is below 0.000508 µg/mL.

Take `C#CCNC(=Nc1nc(C)ncc1CSc1nnc(-c2ccc([N+](=O)[O-])cc2)o1)NC` [Compound C-2, reference compound]: the “IC50 (IC50-C)” value in assay [1] is above 10 µg/mL. For the same compound, in assay [4], the “IC50 PANC-1” value amounted to 0.002 µg/mL (≈ 0.00456 µM). The “IC50 A549” value in assay [5] came to 0.0044 µg/mL (≈ 0.01 µM). Further, in assay [6], the “IC50 HT-29” value was 0.002 µg/mL (≈ 0.00456 µM). Also, in assay [2], the “IC50 Ma44” value was determined as 0.0034 µg/mL (≈ 0.00775 µM). Further, in assay [3], the “MAC (Minimal Active Concentration)” value is 0.0137 µg/mL.

`CCNC(=Nc1nc(C)ncc1CSc1nnc(-c2ccc([N+](=O)[O-])cc2)o1)SC` [Compound A-3]: the “IC50 (IC50-C)” value in assay [1] was above 10 µg/mL. For the same compound, the “IC50 PANC-1” value in assay [4] stood at 0.051 µg/mL (≈ 0.114 µM). The “IC50 A549” value in assay [5] was found to be 0.063 µg/mL (≈ 0.141 µM). In addition, the “IC50 HT-29” value in assay [6] worked out at 0.052 µg/mL (≈ 0.117 µM). Also, the “IC50 RERF-LC-AI” value in assay [7] amounted to 0.046 µg/mL (≈ 0.103 µM). Besides, the “IC50 Ma44” value in assay [2] is 0.056 µg/mL (≈ 0.126 µM). Further, the “MAC (Minimal Active Concentration)” value in assay [3] came out at 0.37 µg/mL.

`CNC(=Nc1nc(C)ncc1CSc1nnc(-c2ccc([N+](=O)[O-])cc2)o1)NCC(F)(F)F` [Compound C-1, reference compound]: the “IC50 PANC-1” value in assay [4] is 0.0064 µg/mL (≈ 0.0133 µM). Moreover, the “IC50 A549” value in assay [5] was 0.016 µg/mL (≈ 0.0332 µM). Besides, the “IC50 HT-29” value in assay [6] amounted to 0.0066 µg/mL (≈ 0.0137 µM). Moreover, in assay [2], the “IC50 Ma44” value is 0.011 µg/mL (≈ 0.0228 µM). Also, the “MAC (Minimal Active Concentration)” value in assay [3] came out at 0.0412 µg/mL.

Consider `CCCNC(=Nc1nc(C)ncc1CSc1nnc(-c2ccc([N+](=O)[O-])cc2)o1)SC` [Compound A-4], for which the “IC50 (IC50-C)” value in assay [1] was above 10 µg/mL. Moreover, the “IC50 PANC-1” value in assay [4] was found to be 0.026 µg/mL (≈ 0.0566 µM). Moreover, the “IC50 A549” value in assay [5] was 0.038 µg/mL (≈ 0.0827 µM). The “IC50 HT-29” value in assay [6] turned out to be 0.023 µg/mL (≈ 0.05 µM). In assay [7], the “IC50 RERF-LC-AI” value was 0.03 µg/mL (≈ 0.0653 µM). For the same compound, in assay [2], the “IC50 Ma44” value was 0.051 µg/mL (≈ 0.111 µM). In assay [3], the “MAC (Minimal Active Concentration)” value was 0.37 µg/mL.

In the case of `CCNC(=Nc1nc(C)ncc1CSc1nnc(-c2ccc([N+](=O)[O-])cc2)o1)OCC` [Compound A-33], the “IC50 (IC50-C)” value in assay [1] is above 10 µg/mL. In addition, the “IC50 PANC-1” value in assay [4] was determined as 0.0086 µg/mL (≈ 0.0194 µM). Moreover, the “IC50 A549” value in assay [5] is 0.023 µg/mL (≈ 0.0519 µM). Moreover, the “IC50 HT-29” value in assay [6] was found to be 0.0066 µg/mL (≈ 0.0149 µM). In addition, the “IC50 RERF-LC-AI” value in assay [7] stood at 0.0093 µg/mL (≈ 0.021 µM). In addition, the “IC50 Ma44” value in assay [2] was found to be 0.0091 µg/mL (≈ 0.0205 µM). The “MAC (Minimal Active Concentration)” value in assay [3] was found to be 0.0412 µg/mL.
